Reference: patent US10604523B2, “1-aryl-4-methyl-[1,2,4]triazolo[4,3-a]quinoxaline derivatives” (Janssen Pharmaceutica NV, priority 2011, dated 2020)
Read-outs that look alike come from different tables or passages of the source.

What was measured:
[1] = target: T1, Human recombinant PDE2A (hPDE2A) (Homo sapiens, UniProt O00408); assay: In vitro assay PDE2A (SPA, 3H-cGMP); assay type: biochemical; conditions: read-out: pIC50 PDE2 (converted)
T1 construct: made in house; host or cells: Sf9 insect cells (baculovirus)
T1 sequence (O00408 whole entry): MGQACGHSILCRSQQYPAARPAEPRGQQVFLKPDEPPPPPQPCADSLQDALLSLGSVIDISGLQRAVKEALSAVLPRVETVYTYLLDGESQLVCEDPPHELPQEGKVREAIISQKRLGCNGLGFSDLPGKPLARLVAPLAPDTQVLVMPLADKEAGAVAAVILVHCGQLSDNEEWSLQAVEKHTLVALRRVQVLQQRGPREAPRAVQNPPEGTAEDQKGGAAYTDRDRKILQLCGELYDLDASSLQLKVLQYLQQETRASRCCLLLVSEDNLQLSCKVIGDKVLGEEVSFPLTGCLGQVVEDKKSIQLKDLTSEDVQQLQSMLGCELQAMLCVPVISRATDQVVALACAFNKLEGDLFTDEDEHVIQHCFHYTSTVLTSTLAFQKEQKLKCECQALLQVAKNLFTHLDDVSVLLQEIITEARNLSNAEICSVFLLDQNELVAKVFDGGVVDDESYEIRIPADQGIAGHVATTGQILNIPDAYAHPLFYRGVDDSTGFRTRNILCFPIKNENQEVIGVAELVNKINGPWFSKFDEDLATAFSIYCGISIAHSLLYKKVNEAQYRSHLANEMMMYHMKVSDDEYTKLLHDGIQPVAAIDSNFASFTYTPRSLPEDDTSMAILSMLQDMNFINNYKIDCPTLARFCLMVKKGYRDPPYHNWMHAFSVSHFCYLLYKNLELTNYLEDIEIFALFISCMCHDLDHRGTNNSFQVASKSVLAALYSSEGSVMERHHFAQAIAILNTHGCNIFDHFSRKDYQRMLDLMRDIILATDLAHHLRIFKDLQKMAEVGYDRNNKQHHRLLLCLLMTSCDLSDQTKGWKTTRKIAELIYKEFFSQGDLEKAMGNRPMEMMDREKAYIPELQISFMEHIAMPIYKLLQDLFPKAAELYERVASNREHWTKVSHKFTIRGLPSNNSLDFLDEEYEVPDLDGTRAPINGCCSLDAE
Description: Tested compounds were dissolved and diluted in 100% DMSO to a concentration 100 fold of the final concentration in the assay. Compound dilutions (0.4 μl) were added in 384 well plates to 20 μl of incubation buffer (50 mM Tris pH 7.8, 8.3 mM MgCl2, 1.7 mM EGTA). 10 μl of hPDE2A enzyme in incubation buffer was added and the reaction was started by addition of 10 μl substrate to a final concentration of 10 μM cGMP and 0.01 μCi ^3H-cGMP. The reaction was incubated for 45 minutes at room temperature. […] After sedimentation of the beads during 30 minutes the radioactivity was measured in a Perkin Elmer Topcount scintillation counter and results were expressed as cpm. For blanc values the enzyme was omitted from the reaction and replaced by incubation buffer. Control values were obtained by addition of a final concentration of 1% DMSO instead of compound.

[2] = target: T2, Rat recombinant PDE10A (rPDE10A2) (Rattus norvegicus, UniProt Q9QYJ6); assay: In vitro assay PDE10A (SPA, 3H-cAMP); assay type: biochemical; conditions: read-out: PIC50 PDE10 (converted)
T2 construct: made in house; host or cells: Sf9 insect cells (baculovirus)
T2 sequence (Q9QYJ6 1-794): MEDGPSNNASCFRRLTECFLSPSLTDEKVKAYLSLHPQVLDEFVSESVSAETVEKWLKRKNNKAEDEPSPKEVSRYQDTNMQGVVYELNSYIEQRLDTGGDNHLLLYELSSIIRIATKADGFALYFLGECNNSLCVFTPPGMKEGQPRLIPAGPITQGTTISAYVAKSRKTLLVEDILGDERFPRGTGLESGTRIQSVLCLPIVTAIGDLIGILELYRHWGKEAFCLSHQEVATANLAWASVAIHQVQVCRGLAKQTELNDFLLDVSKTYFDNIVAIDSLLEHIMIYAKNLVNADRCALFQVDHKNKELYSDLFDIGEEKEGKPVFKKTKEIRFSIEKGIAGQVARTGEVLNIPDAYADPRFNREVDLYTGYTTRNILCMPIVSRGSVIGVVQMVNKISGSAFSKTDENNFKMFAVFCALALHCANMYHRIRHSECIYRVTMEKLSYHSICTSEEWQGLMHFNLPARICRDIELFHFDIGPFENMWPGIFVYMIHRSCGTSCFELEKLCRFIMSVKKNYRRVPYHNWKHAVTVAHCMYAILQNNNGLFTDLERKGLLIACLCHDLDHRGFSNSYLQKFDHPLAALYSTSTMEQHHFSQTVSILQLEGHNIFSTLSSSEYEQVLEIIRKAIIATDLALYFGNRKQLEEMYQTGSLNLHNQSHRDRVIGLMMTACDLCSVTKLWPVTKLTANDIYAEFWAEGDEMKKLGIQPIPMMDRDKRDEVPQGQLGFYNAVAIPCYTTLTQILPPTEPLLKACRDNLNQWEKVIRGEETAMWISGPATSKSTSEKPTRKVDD

[3] = test system: Apomorphine-induced agitation; assay: Reversal of Apomorphine-induced Agitation in Rats (APO); assay type: in vivo, rat
Description: Apomorphine (1.0 mg/kg, i.v.)-induced agitation was scored every 5 min over the first hour after injection of apomorphine. The score system was: (3) pronounced, (2) moderate, (1) slight, and (0) absent. […] For the present purpose, the cumulative agitation score over the whole 60-min observation period was used as a measure to describe the maximum effect (Max effect).

[4] = lowest dose at which ≥67% tested animals respond

IC50 [1]	IC50 [2]	SMILES	also measured
4.27 nM		CCOC(=O)c1ccc2nc(C)c3nnc(-c4ccccc4Cl)n3c2c1 [Compound B-1a, Ethyl 1-(2-chlorophenyl)-4-methyl[1,2,4]triazolo[4,3-a]quinoxaline-8-carboxylate]	IC50 ([2]; -log IC50 expressed in mol/L, rPDE10A2, 60 nM cAMP): 58.9 nM; PO Dose at Max Effect [3]: 2.5 mg/kg; PO Max effect (cumulative agitation score over 60 min) ([3]; apomorphine 1.0 mg/kg i.v.): 22; PO LAD (lowest active dose) [3, 4]: > 2.5 mg/kg
60.3 nM	191 nM	Cc1nc2cc(Br)ccc2n2c(-c3ccccc3Cl)nnc12 [Compound B-3b, 7-Bromo-1-(2-chlorophenyl)-4-methyl[1,2,4]triazolo[4,3-a]quinoxaline]	PO Dose at Max Effect [3]: 10 mg/kg; PO Max effect (cumulative agitation score over 60 min) ([3]; apomorphine 1.0 mg/kg i.v.): 22; PO LAD (lowest active dose) [3, 4]: > 10 mg/kg
8.32 nM	24.5 nM	Cc1nc2ccc(OC(F)(F)F)cc2n2c(-c3ccccc3Cl)nnc12 [Compound B-4a, 1-(2-Chlorophenyl)-4-methyl-8-(trifluoromethoxy)[1,2,4]triazolo[4,3-a]quinoxaline]	PO Dose at Max Effect [3]: 10 mg/kg; PO Max effect (cumulative agitation score over 60 min) ([3]; apomorphine 1.0 mg/kg i.v.): 21; PO LAD (lowest active dose) [3, 4]: > 10 mg/kg
7.59 nM	25.1 nM	COc1ccc2nc(C)c3nnc(-c4ccccc4Cl)n3c2c1 [Compound B-5, 1-(2-Chlorophenyl)-8-methoxy-4-methyl[1,2,4]triazolo[4,3-a]quinoxaline]	PO Dose at Max Effect [3]: 10 mg/kg; PO Max effect (cumulative agitation score over 60 min) ([3]; apomorphine 1.0 mg/kg i.v.): 21; PO LAD (lowest active dose) [3, 4]: > 10 mg/kg
1.62 nM	33.9 nM	Cc1nc2ccc(C(=O)NCc3ccccn3)cc2n2c(-c3cc(Cl)ccc3Cl)nnc12 [Compound B-11, 1-(2,5-Dichlorophenyl)-4-methyl-N-(pyridin-2-ylmethyl)[1,2,4]triazolo[4,3-a]quinoxaline-8-carboxamide]	PO Dose at Max Effect [3]: 10 mg/kg; PO Max effect (cumulative agitation score over 60 min) ([3]; apomorphine 1.0 mg/kg i.v.): 19; PO LAD (lowest active dose) [3, 4]: > 10 mg/kg
21.4 nM	269 nM	CCOCc1ccc2nc(C)c3nnc(-c4ccccc4)n3c2c1 [Compound B-12, 8-(Ethoxymethyl)-4-methyl-1-phenyl[1,2,4]triazolo[4,3-a]quinoxaline]	SC Dose at max effect ([3]; subcutaneous route): 10 mg/kg; SC Max effect (cumulative agitation score over 60 min) ([3]; subcutaneous route, apomorphine 1.0 mg/kg i.v.): 19; SC LAD (lowest active dose) ([3]; subcutaneous route, lowest dose at which ≥67% tested animals respond): 10 mg/kg
30.2 nM	589 nM	CCCOc1ccc(Cl)c(-c2nnc3c(C)nc4ccc(CN5CCC(F)CC5)cc4n23)c1 [Compound B-135]	
31.6 nM	1260 nM	Cc1nc2ccc(CN3CCC(O)CC3)cc2n2c(-c3cc(OC(C)C)ccc3Cl)nnc12 [Compound B-136]	
33.1 nM	1000 nM	CCCOc1ccc(Cl)c(-c2nnc3c(C)nc4ccc(CN5CCN(C)CC5)cc4n23)c1 [Compound B-137]	
33.9 nM	708 nM	CCCOc1ccc(Cl)c(-c2nnc3c(C)nc4ccc(CNc5cccnc5)cc4n23)c1 [Compound B-138]	
4.47 nM	31.6 nM	Cc1nc2ccc(C(=O)C3CC3)cc2n2c(-c3ccccc3Cl)nnc12 [Compound B-144]	
40.7 nM	1020 nM	Cc1nc2ccc(OCCc3cccnc3)cc2n2c(-c3cc(OC(C)C)ccc3Cl)nnc12 [Compound B-146]	
44.7 nM	87.1 nM	Cc1nc2ccc(NC3CCN(C)CC3)cc2n2c(-c3ccccc3Cl)nnc12 [Compound B-147]	
50.1 nM	3890 nM	CCCCOc1ccc(Cl)c(-c2nnc3c(C)nc4ccc(CNCC5CC5)cc4n23)c1 [Compound B-152]	
52.5 nM	380 nM	Cc1cncc(-c2nnc3c(C)nc4ccc(Br)cc4n23)c1 [Compound B-154]	
60.3 nM	9120 nM	CCCCOc1cncc(-c2nnc3c(C)nc4ccc(CNC5CCC5)cc4n23)c1 [Compound B-155]	
61.7 nM	7940 nM	CCCCOc1cncc(-c2nnc3c(C)nc4ccc(CNCC5CC5)cc4n23)c1 [Compound B-156]	
57.5 nM	282 nM	Cc1nc2ccc(CN3CCC(N(C)C)CC3)cc2n2c(-c3ccccc3Cl)nnc12 [Compound B-157]	
60.3 nM	603 nM	Cc1nc2ccc(C(=O)OCCCc3ccccc3)cc2n2c(-c3ccccc3)nnc12 [Compound B-158]	
60.3 nM	347 nM	Cc1nc2ccc(Br)cc2n2c(-c3ccccc3OC(F)(F)F)nnc12 [Compound B-159]	
60.3 nM	2450 nM	CCCCOc1ccc(Cl)c(-c2nnc3c(C)nc4ccc(CN5CCN(C)CC5)cc4n23)c1 [Compound B-160]	
60.3 nM	8710 nM	CCCOc1ccc(Cl)c(-c2nnc3c(C)nc4ccc(OC[C@@H]5CCCN5)cc4n23)c1 [Compound B-161]	
67.6 nM	871 nM	Cc1cncc(-c2nnc3c(C)nc4ccc(C(F)(F)F)cc4n23)c1 [Compound B-162]	
69.2 nM	1150 nM	COc1cncc(-c2nnc3c(C)nc4ccc(C(F)(F)F)cc4n23)c1 [Compound B-163]	

IC50 [1]	IC50 [2]	SMILES	also measured
69.2 nM	2510 nM	COc1ccc2nc(C)c3nnc(-c4ccccc4OC(F)(F)F)n3c2c1 [Compound B-164]	
81.3 nM	501 nM	COc1cncc(-c2nnc3c(C)nc4ccc(OC(F)(F)F)cc4n23)c1 [Compound B-165]	
95.5 nM	282 nM	Cc1nc2ccc(Br)cc2n2c(-c3cccc(Cl)c3Cl)nnc12 [Compound B-166]	
102 nM	2820 nM	CCNC(=O)c1ccc2c(c1)nc(C)c1nnc(-c3cccnc3C)n12 [Compound B-169]	
102 nM	3630 nM	Cc1nc2ccc(CN3CCN(C)CC3)cc2n2c(-c3cc(OC(C)C)ccc3Cl)nnc12 [Compound B-170]	
117 nM	741 nM	Cc1nc2ccc(Br)cc2n2c(-c3cncc(Cl)c3)nnc12 [Compound B-171]	
126 nM	7760 nM	CCNC(=O)c1ccc2c(c1)nc(C)c1nnc(-c3cncc(OC)c3)n12 [Compound B-172]	
135 nM	977 nM	COc1ccc2nc(C)c3nnc(-c4cnccc4C)n3c2c1 [Compound B-173]	
204 nM	1780 nM	CCNC(=O)c1ccc2c(c1)nc(C)c1nnc(-c3cccnc3OC)n12 [Compound B-180]	
240 nM	5500 nM	CCNC(=O)c1ccc2nc(C)c3nnc(-c4ccccn4)n3c2c1 [Compound B-181]	
240 nM	4170 nM	CCNC(=O)c1ccc2nc(C)c3nnc(-c4ccc(C)nc4)n3c2c1 [Compound B-182]	
29.5 nM	7760 nM	CCOCc1cncc(-c2nnc3c(C)nc4ccc(CN5CCOCC5)cc4n23)c1 [Compound B-194]	
42.7 nM	3550 nM	Cc1nc2ccc(CN3CCOCC3)cc2n2c(-c3cncc(OCCF)c3)nnc12 [Compound B-195]	
64.6 nM	8710 nM	Cc1nc2ccc(CN3CCOCC3)cc2n2c(-c3cncc(OCCCF)c3)nnc12 [Compound B-196]	
89.1 nM	5890 nM	COCCc1cncc(-c2nnc3c(C)nc4ccc(CN5CCOCC5)cc4n23)c1 [Compound B-198]	
89.1 nM	3890 nM	Cc1nc2ccc(CN3CCC(F)CC3)cc2n2c(-c3cncc(OCC4CC4)c3)nnc12 [Compound B-199]	
95.5 nM	5130 nM	CCCCOc1cncc(-c2nnc3c(C)nc4ccc(CN5CCC(F)CC5)cc4n23)c1 [Compound B-201]	
132 nM	8130 nM	COCCCc1cncc(-c2nnc3c(C)nc4ccc(CN5CCOCC5)cc4n23)c1 [Compound B-204]	
135 nM	> 10000 nM	CCCCOc1cncc(-c2nnc3c(C)nc4ccc(CN5CCCC5)cc4n23)c1 [Compound B-206]	
240 nM	> 10000 nM	Cc1nc2ccc(CNC3CCC3)cc2n2c(-c3cncc(OCC4CC4)c3)nnc12 [Compound B-207]	
275 nM	> 10000 nM	Cc1nc2ccc(CN3CCCC3)cc2n2c(-c3cncc(OCC4CC4)c3)nnc12 [Compound B-208]	
302 nM	> 10000 nM	CCCOc1cncc(-c2nnc3c(C)nc4ccc(CNC5CCC5)cc4n23)c1 [Compound B-209]	
355 nM	6170 nM	CCOCc1cncc(-c2nnc3c(C)nc4ccc(CN(C)C)cc4n23)c1 [Compound B-212]	
372 nM	> 10000 nM	CCOCc1cncc(-c2nnc3c(C)nc4ccc(CNC5CCC5)cc4n23)c1 [Compound B-213]	
